Data: patent US5491217A, “LHRH antagonists having modified aminoacyl residues at positions 5 and 6” (TAP Holding Inc., priority 1994, dated 1996)
Where a SMILES comes first, the peptide text is derived from it. [ ]: non-standard residue; d: D form. NMePhe(4-NO2) = CN[C@@H](Cc1ccc([N+](=O)[O-])cc1)C(=O)O; dPhe(4-Cl) = N[C@H](Cc1ccc(Cl)cc1)C(=O)O; d2Nal = N[C@H](Cc1ccc2ccccc2c1)C(=O)O; dCit = NC(=O)NCCC[C@@H](N)C(=O)O; d3Pal = N[C@H](Cc1cccnc1)C(=O)O

Biological target: T1, LHRH (Rattus norvegicus, UniProt P30969)
T1 construct: endogenous in cells
T1 sequence (P30969 1-327): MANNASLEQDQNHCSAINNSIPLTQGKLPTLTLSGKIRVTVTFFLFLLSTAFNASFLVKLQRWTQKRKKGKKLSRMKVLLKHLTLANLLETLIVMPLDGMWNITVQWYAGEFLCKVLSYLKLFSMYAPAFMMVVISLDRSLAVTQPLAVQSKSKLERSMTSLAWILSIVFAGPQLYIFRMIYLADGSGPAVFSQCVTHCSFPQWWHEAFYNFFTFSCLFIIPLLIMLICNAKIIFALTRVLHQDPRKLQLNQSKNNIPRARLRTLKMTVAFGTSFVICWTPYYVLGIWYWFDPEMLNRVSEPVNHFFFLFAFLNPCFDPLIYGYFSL
Assay: in vitro test for LHRH antagonist potency (pA2) against the agonist leuprolide
Assay type: cell-based
Details: negative logarithm of the concentration of antagonist which shifts the response curve produced by the agonist leuprolide to two-fold higher concentration
Protocol: Representative compounds of the present invention were evaluated in in vitro tests for receptor binding (pKI) and for LHRH antagonist potency (pA2). The tests employed the methods detailed in F. Haviv, et al. J. Med. Chem, 32: 2340-2344 (1989). The receptor binding affinities (pKI) are the negative logarithms of the equilibrium dissociation constants, and the values of pA2 are the negative logarithms of the concentration of antagonist which shift the response curve produced by the agonist leuprolide to two-fold higher concentration. (Leuprolide is the LHRH agonist having the structure 5-ox--Pro^1 --His^2 --Trp^3 --Ser^4 -- Tyr^5 --D--Leu^6 --Leu^7 --Arg^8 --Pro^9 --NHEt and is disclosed and claimed in U.S. Pat. No. 4,005,063.) Typically pA2 values of 9.5 or greater are indicative of good LHRH antagonist potency.

Row | Molecule | Kb [pM] | pA2
1 | CC(=O)N[C@H](Cc1ccc2ccccc2c1)C(=O)N[C@H](Cc1ccc(Cl)cc1)C(=O)N[C@H](Cc1cccnc1)C(=O)N[C@@H](CO)C(=O)N(C)[C@@H](Cc1ccc([N+](=O)[O-])cc1)C(=O)N[C@H](CCCNC(N)=O)C(=O)N[C@@H](CC(C)C)C(=O)N[C@@H](CCCNC(=N)N)C(=O)N1CCC[C@H]1C(=O)N[C@H](C)C(N)=O [Example 1, NAc--D-2Nal--D-4ClPhe--D-3Pal--Ser--NMe(4-NO2)Phe--D--Cit--Leu--Arg--Pro--DAlaNH2] (Ac-[d2Nal][dPhe(4-Cl)][d3Pal]S[NMePhe(4-NO2)][dCit]LRP[dA]-NH2) | 5.5 | 
2 | NAc--D2Nal--D4ClPhe--D3Pal--Ser--NMe(4-Atza)Phe--DLyS(Nic)--Leu--Lys(Isp)-- ProDAlaNH2 [Example 3] |  | 11.22
3 | NAc--D-2Nal--D-4ClPhe--D-3Pal--Ser--NMe--(4-Atza)Phe--D--(4-Atza)Phe--Leu --Lys(Isp)--Pro--D--AlaNH2 [Example 5] |  | 10.68
4 | NAc--D-2Nal--D-4ClPhe--D-3Pal--Ser--NMeTyr--D-(4-Atza)Phe--Leu--Lys(Isp)--Pro--D--AlaNH2 [Example 4] |  | 10.35
